Assay results as given in patent US12589158B2 (priority 2022, dated 2026).
Where two headings read alike, the source gives them in different places.

Legend:
[1] = Pharmacokinetics in cynomolgus monkeys; conditions: cynomolgus monkey, in vivo
Description: After subcutaneous or intravenous administration to cynomolgus monkeys, plasma is collected and the drug concentration in plasma is determined to illustrate the in vivo pharmacokinetic properties of the compound according to the present invention. The compound is dissolved in 1.4% PG in 8 mM Na2HPO4 Buffer (pH 7.39), and filtered through a filter membrane (PTFE, 0.45 μm) to obtain 25 and 12.5 nmol/mL solution of the compound respectively. The obtained solutions are administered to cynomolgus monkeys (4-8 kg) at a dose of 25 nmol/kg subcutaneously (s.c.) or 12.5 nmol/kg intravenously (i.v.). […] The blood samples are centrifuged at 2200 g for 10 minutes to obtain a plasma, which is stored at −90° C. to −60° C. for further analysis and assay.
70.0 μL of thawed plasma sample is taken. 70 μL of acetonitrile (containing 1 ng/ml of the internal standard) is added to precipitate protein. The mixture is vortexed for 1 minute, and centrifuged at 14000 rpm for 10 minutes. 60.0 μL of the supernatant is taken, into which 60.0 μL of 0.5% aqueous formic acid solution is added. The mixture is vortexed for 5 minutes. 10 μL of the mixture solution is sampled and injected into the LC-MS/MS to determine the drug concentration in plasma.
Based on the drug concentration in plasma of the compounds in the cynomolgus monkeys, the pharmacokinetic parameters are calculated by applying the software Winnolin 8.2 in a non-compartmental model, and the results are shown in Table 9 and Table 10 below.

SD male rats = format: in vivo
Description: (§1) 77 SD male rats (SPF grade) are selected and randomly divided into 10 groups based on body weight. Group 1 is the vehicle control group, including 5 animals. […] Group 5 to Group 7 are the groups administrated with the test substance 1; and Group 8 to Group 10 are the groups administrated with the test substance 2, each group including 8 animals, wherein 5 animals for primary test, and 3 animals for toxicokinetics test, and the administration dose is 1, 3 and 10 mg/kg respectively. Each of the above groups is continuously administered twice a week for 2 weeks (administrating at Day 1, Day 5, Day 8, Day 12 and Day 15).
(§2) During the experiment, the cage condition monitoring, detailed clinical observations, determination of the food consumption, determination of body weight, measurement of the blood biochemical and hematology indicator, investigation of the gross anatomy, weighing of the organ, studying on toxicokinetic are performed on all the groups of the animals.
(§3) Original data during each time period is tabulated. The average values and standard deviations and/or group change are calculated for each assay endpoint based on the group and sex. For each endpoint, the administrated group will be compared with the control group in the following aspect. A logarithmic conversion is performed to the endpoint data as desired prior to the start of the specific analyses.

[2] = format: in vivo; conditions: rat, in vivo, male SD rats
Description: as §1, §2, §3

[3] = in vivo
[4] = Pharmacokinetics in beagle dogs; format: in vivo; conditions: 0.05 mg/kg
Description: After subcutaneous administration to beagle dogs, plasma is collected and the drug concentration in plasma is determined to illustrate the in vivo pharmacokinetic properties of the compound according to the present invention. The compound of the present invention is administered to a beagle dog (7-9 kg) at a dose of 0.05 mg/kg subcutaneously (s.c.). About 500 μL of whole blood is collected from the saphenous vein into an EDTA-K2 anticoagulant tube at predose, 0.5 hours, 1 hour, 2 hours, 6 hours, 10 hours, 24 hours, 48 hours, 72 hours and 96 hours, respectively. The blood samples are centrifuged at 3000 g and at 2° C. to 8° C. for 10 minutes to obtain plasma, which is stored at −90° C. to −60° C. for further analysis and assay.
20.0 μL of thawed plasma sample is taken. […] Then 120 μL of 0.1% formic acid methanol is added to precipitate the protein. The mixture is vortexed for 5 minutes, and centrifuged at 4815 g for 10 minutes. 100.0 μL of the supernatant is taken, into which 100 μL of 0.5% aqueous formic acid solution is added. The mixture is vortexed for 5 minutes. 10 μL of the mixture solution is sampled and injected into the LC-MS/MS to determine the drug concentration in plasma.
Based on the drug concentration in plasma of the compound in the beagle dogs, the pharmacokinetic parameters are calculated by applying the software Winnolin 8.3 in a non-compartmental model.

[5] = Pharmacokinetics following single administration in SD rat; set-up: species or system SD rats; conditions: in vivo, sc, 50 nmol/kg
Description: The compound is administrated to male SD rats (230-268 g, n=3) at a dose of 50.0 nmol/kg (s.c.) or 25.0 nmol/kg (i.v.). […] 30.0 μL of thawed plasma sample is taken. 150 μL of acetonitrile solution (containing 5 ng mL^−1 Verapamil, 50 ng·mL^−1 Glibenclamide, 200 ng·mL^−1 Tolbutamide and 200 ng·mL^−1 Diclofenac) are added to precipitate protein. The mixture is vortexed for 5 minutes, and centrifuged at 3700 rpm for 8 minutes. 70.0 μL of the supernatant is taken, into which 70.0 μL of 0.5% aqueous formic acid solution is added. The mixture is vortexed for 5 minutes. 15 μL of the mixture solution is sampled and injected into the LC-MS/MS to determine the drug concentration in plasma. 20.0 μL of thawed plasma sample is taken. 60 μL of acetonitrile solution (containing 5 ng mL^−1 Verapamil, 50 ng·mL^−1 Glibenclamide, 200 ng·mL^−1 Tolbutamide and 200 ng·mL^−1 Diclofenac) are added to precipitate protein. […] The mixture is vortexed for 10 minutes. 10.0 μL of the mixture solution is sampled and injected into the LC-MS/MS to determine the drug concentration in plasma. 30.0 μL of thawed plasma sample is taken. 150 μL of acetonitrile solution (containing 5 ng mL^−1 Verapamil, 50 ng mL^−1 Glibenclamide, 200 ng·mL^−1 Tolbutamide and 200 ng·mL^−1 Diclofenac) are added to precipitate protein. The mixture is vortexed for 5 minutes, and centrifuged at 3700 rpm for 8 minutes. 70.0 μL of the supernatant is taken, into which 70.0 μL of 0.5% aqueous formic acid solution is added. The mixture is vortexed for 5 minutes. 10.0 μL of the mixture solution is sampled and injected into the LC-MS/MS to determine the drug concentration in plasma.

[6] = Pharmacokinetics in C57 mice; conditions: mouse, in vivo
Description: After subcutaneous or intravenous administration to C57 mice, plasma is collected and the drug concentration in plasma is determined to illustrate the in vivo pharmacokinetic properties of the compound according to the present invention. […] 20.0 μL of thawed plasma sample is taken. 20 μL of 50% aqueous methanol solution (containing 100 ng mL^−1 internal standard) and 60 μL of acetonitrile are added sequentially to precipitate protein. The mixture is vortexed for 5 minutes, and centrifuged at 3700 rpm for 8 minutes. 50.0 μL of the supernatant is taken, into which 50.0 μL of 0.5% aqueous formic acid solution is added. The mixture is vortexed for 5 minutes. 50 μL of the mixture solution is sampled and injected into the LC-MS/MS to determine the drug concentration in plasma.

[7] = male SD rats, twice a week for 2 weeks, 1, 3, 10 mg/kg

In the case of `CC[C@H](C)[C@H](NC(=O)C(C)(C)NC(=O)[C@H](Cc1ccc(O)cc1)NC(=O)[C@H](CC(=O)O)NC(=O)[C@H](CO)NC(=O)[C@@H](NC(=O)C(C)(Cc1ccccc1)NC(=O)[C@@H](NC(=O)CNC(=O)[C@H](CCC(=O)O)NC(=O)C(C)(C)NC(=O)[C@@H](N)Cc1ccc(O)cc1)[C@@H](C)O)[C@@H](C)O)C(=O)NC(C)(C)C(=O)N[C@@H](CC(C)C)C(=O)N[C@@H](CC(=O)O)C(=O)N[C@@H](CCCCN)C(=O)N[C@@H](CCC(N)=O)C(=O)N[C@@H](C)C(=O)N[C@@H](CCC(N)=O)C(=O)N[C@@H](C)C(=O)N[C@@H](CCC(=O)O)C(=O)N[C@@H](Cc1ccccc1)C(=O)N[C@H](C(=O)N[C@@H](CCCCNC(=O)COCCOCCNC(=O)COCCOCCNC(=O)COCCOCCNC(=O)CC[C@H](NC(=O)CCCCCCCCCCCCCCCCCCCCC(=O)O)C(=O)O)C(=O)N[C@@H](Cc1c[nH]c2ccccc12)C(=O)N[C@@H](CC(C)C)C(=O)N[C@@H](CC(C)C)C(=O)N[C@@H](CCCCN)C(=O)NCC(=O)NCC(=O)N1CCC[C@H]1C(=O)N[C@@H](CO)C(=O)N[C@@H](CO)C(=O)NCC(=O)N[C@@H](C)C(=O)N1CCC[C@H]1C(=O)N1CCC[C@H]1C(=O)N1CCC[C@H]1C(=O)N[C@@H](CO)C(=O)N[C@@H](CCCCN)C(N)=O)C(C)C` (some centres unmarked) [P016], the MRT inf ([1]; iv, 12.5 nmol/kg) is reported as 72.9 ± 10.9 h, the MRT last ([1]; iv, 12.5 nmol/kg) is reported as 65.3 ± 8.85 h and the T1/2 ([1]; iv, 12.5 nmol/kg) is reported as 59.81 ± 8.95 h. The MRT inf ([1]; sc, 25 nmol/kg) was 101 ± 19.2 h, the MRT last ([1]; sc, 25 nmol/kg) was 96.5 ± 15.9 h and the T1/2 ([1]; sc, 25 nmol/kg) was 60.40 ± 12.80 h. The “Toxicokinetic: Cmax and AUC versus dose” value (SD male rats; male SD rats, 1, 3, 10 mg/kg) was “increase nearly proportionally to the dose”, the “Toxicokinetic: accumulation” value (SD male rats; male SD rats, continuously administered twice a week for 2 weeks) was “no substantial accumulation” and the “Food Intake” value (SD male rats; [7]) was “dose-dependent decrease”. The “Gross Anatomy” value (SD male rats; [7]) was “no abnormalities are found”, the “Safety Window (based on dosage)” value (SD male rats; rat MTD for 2 weeks vs efficacy dose in db/db mice) was 1282 and the MTD ([2]; MTD for 2 weeks, twice a week) was 1.92 µmol/kg. For the same molecule, the MTD ([2]; continuously administered twice a week for 2 weeks) was over 10 mg/kg, the “heart rate recovery time” value [3] was 72 to 120 h and the “increase in HR” value [3] was “lower than that for Tirepatide”. It also gave an AUC(0-t) ([4]; beagle dogs, single subcutaneous administration, plasma) of 29925 ng·h/mL, an MRT inf ([4]; dog, in vivo, sc) of 108 ± 23.2 h and an MRT last ([4]; dog, in vivo, sc) of 44.8 ± 4.17 h. For the same molecule, the T1/2 ([4]; dog, in vivo, sc) was 69.32 h, the MRT inf [5] was 31.1 ± 1 h and the MRT last [5] was 28.1 ± 1.12 h. For the same molecule, the T1/2 [5] was 14.1 ± 0.153 h, the MRT inf ([6]; iv) was 26.6 h and the MRT last ([6]; iv) was 19.9 h. It also gave an MRT inf ([6]; sc) of 35.9 h and an MRT last ([6]; sc) of 26 h.
